# How the values were obtained:
# [1] = UVA1 (365 nm) photodegradation in aqueous buffer, UV–vis spectra / RP-HPLC; assay type: physicochemical; settings: for UVA1 photodegradation (spectral change): 50 μM, aqueous; for diketo increase to the keto-enol decrease: UVA1 365 nm
# Experimental: The samples were obtained after passage for appropriate periods and measured using an UV–vis spectrophotometer in the maximum range between 200 and 700 nm (arranged on demand) from long wavelengths toward short wavelengths to avoid unnecessary irradiation of the UV region. To obtain HPLC chromatograms, aliquots of the UV-irradiated solution were obtained by pipetting at 0, 1/5, 1/2, 1, 2, 3, 4, 24, 48, 72, 96, 120, 144, and 168 h for AVB and at 0, 1, 2, 3, and 18 h for CUR. To obtain those of OXB in the absence or presence of β-CD, the invariable samples were certified at 0 and 48 h. For the samples in acetonitrile aqueous solution or methanol aqueous solution at a ratio of 7:3, the time evolution of the UVA1 irradiated solution was examined under similar conditions.
# [2] = Molar absorption coefficients of 270 and 360 nm peaks (UV–vis calibrated by NMR molar ratio); assay type: physicochemical
# From the text: From NMR titration, the diketo and enol forms were expected to be 15.3 and 84.7%, respectively. Therefore, the abscissae of the regression lines were condensed to the species contents, leading to the molar absorption coefficients (i.e., absorbance gradients to the molarity) for the diketo and keto-enol forms being approximately 8.1 × 10^7 and 4.3 × 10^7 L/mol. Figure S13 confirms that the molar absorption coefficients for the diketo and keto-enol forms in the isochoric acetonitrile/water solvent were approximately 13.8 × 10^7 and 3.6 × 10^7 L/mol, respectively. The obtained parameters allowed the absorbance to be converted into AVB molarity.
# [3] = Phase-solubility diagram with β-CD
# Experimental: The solutions were mechanically shaken at 298 K in a thermostatic chamber, and the supernatant was sampled and filtered after passage for appropriate periods. The concentration of the drug in the supernatant was determined using HPLC.
# The phase-solubility diagram consists of the equilibrium concentration of the guest drug as the ordinate and the total concentration of the host CD as the abscissa.[45] If a straight line and parabolic curve can be approximated on the phase-solubility diagram, then, the curves are classified as AL- and AP-types in the Higuchi and Connors catalogs, respectively.[45],[46]
# Multiple regression analysis of the measured data set to the total concentration of the host ([CD]) and its squares ([CD]^2) using eq 3 can be used to obtain the stability constants for a combination of the equimolar complex K1:1 and double-host associating complex K1:2.[45],[46] [drawing 3] 3 This is the sum of the dissociated (free) and associated (complexed) drug concentrations. Although the Benesi–Hildebrand equation with the square of the host concentration has been used for parabolic correlations, its validity remains unclear.
# This curve is classified as the AN-type on the Higuchi and Connors catalog.[45]−[48] The curve is described by eq 4′ according to the Langmuir adsorption isotherm model.[47]−[51] To process with the linear regression analysis of ordinate ([CD]/γ) referred to abscissa ([CD]), the Hanes–Woolf expression in eq 4′ may be used [drawing 4] 4 [drawing 5] 4′ where n indicates the asymptotic concentration of the drug associated with CD (saturation, maximal γ) and K is equivalent to the drug/CD complex stability constant. […] The stoichiometry of a complex of drugs with CD is difficult to determine; the prevailing opinion is that more than one guest molecule incorporates a host molecule and that hydration or ionization of the guest regulates the solubility of the complex.[46]
# Szejtili[46] stated that, in rare cases, the ascending region at lower host concentrations is followed by a plateau region, similar to that of the AN-type saturation curve. Simultaneously, it terminates at any host concentration threshold. It is named the BS-type in the Higuchi and Connors catalog,[45]−[48] and for concentrations higher than the threshold, the guest concentration decreases along a hyperbola, probably according to the solubility product KSP.[49] To analyze this type of pattern, a hypothesis that is yet to be discussed is required.[52] […] At the threshold concentration of CD, the scale of the aggregated dispersoids transcends an upper limit, and the aggregation induces subsequent sedimentation.[52] Thus, the solubility product may be considered a property of poorly soluble aggregated dispersoids containing a tolerable amount of the drug and an excess amount of CD.
# [4] = Flask-shaking 1-octanol/water partition, log D–pH profile fitted to Avdeef's diagram; assay type: physicochemical; settings: modified Britton–Robinson buffers pH 5–11.5, 298 K
# Experimental: The aqueous-phase solvents were prepared by mixing 25 mM KH2PO4 and 25 mM Na2HPO4 solutions in 25 mM Pi buffer. The pH was adjusted before fixing the prescribed concentrations of the acid components of the buffer. The JP1 and JP2 buffer solutions were 10 mM sodium citrate/HCl buffer (pH 1.2) and Pi buffer (pH 6.8), which were prepared in compliance with the description for solution media for the dissolution test in Japanese Pharmacopeia (JP)-implemented international harmonization. The modified Britton–Robinson universal pH buffer comprised 28.6 mM KH2PO4, 28.6 mM HBO2, and 28.6 mM NaCl, titrated with 1 M NaOH (here, modified means elimination of barbital to cancel its interaction with organic solutes). For the partition equilibrium examination, the aqueous saturated 1-octanol phase comprised 1-octanol, which was flooded with a modified Britton–Robinson buffer adjusted to the appropriate pH in advance.
# The hydrophobic drug dissolved in the aqueous saturated 1-octanol phase was mixed with an isochoric solution of the modified Britton–Robinson buffer (pH 5–11.5), saturated with 1-octanol. Thereafter, the samples in the screw-capped vials were machine-shaken at 298 K in a thermostatic chamber for 60 min and subsequently kept stationary for 60 min; the procedure corresponds to the conventional “flask-shaking” method.[41]−[43] After settling, the pH in the aqueous phase was confirmed using pH indicator strips (MColoHast pH 0–6.0, MQuant pH 7.5–14, and MQuant pH 0–14, Merck, Germany) to be that of the adjusted pH value. Aliquots (10 μL) from the 1-octanol and the aqueous layers were injected into the HPLC instrument. The 1-octanol/water partition coefficients, log P (equivalent to log KOW), and acid dissociation constants, pKa, were optimized using curve fitting, approximated by eq 1 [drawing 1] 1 which is Avdeef’s diagram[44] derived from the Henderson–Hasselbalch expression for the equilibrium between the protonated and deprotonated species. The curve-fitting procedures used the solver module of Microsoft Excel 2016 with the implemented GRG nonlinear option. Approximate curves corresponding to these optimized parameters were drawn, and the pKa and log P values for AVB, OXB, and CUR were obtained.
# [5] = cited from earlier work
substance,measurement,setting,value
p-tert-butyl-p-methoxydibenzoylmethane [AVB],UVA1 photodegradation (spectral change),[1]; absence of β-CD,gradually photodegraded
same,UVA1 photodegradation (spectral change),[1]; presence of β-CD,insignificantly degraded
same,diketo increase to the keto-enol decrease,[1]; 25 μM β-CD,20.1%
same,diketo increase to the keto-enol decrease,[1]; 4 mM β-CD,23.9%
same,diketo increase to the keto-enol decrease,[1]; no β-CD,19.3%
same,"molar absorption coefficient, diketo form (270 nm)",[2]; isochoric acetonitrile/water,approximately 13.8 × 10^7 L/mol
same,"molar absorption coefficient, keto-enol form (360 nm)",[2]; isochoric acetonitrile/water,~3.6e+07 L/mol
same,"molar absorption coefficient, keto-enol form (360 nm)",[2]; methanol/H2O = 7:3,~4.3e+07 L/mol
same,stability constant K1:1 with β-CD,"[3]; 25 mM Pi/NaOH buffer pH 6.8, 298 K, Figure 2, in M-1 (unit assumed)",1023
same,stability constant K1:1 with β-CD,"[3]; equimolar complex, pH 6.8",1023 L/mol
same,"acid dissociation constant, pKa",[4]; from log D–pH curve fitting,8.59
same,"1-octanol/water partition coefficient, log P","[4]; neutral form, curve fitting",4.27
same,log Kow,[5]; Chart 1,4.51
same,reported log P,[5],4.51
same,reported pKa,[5],9.7
same,partition coefficient log KOW,"[5]; introduction, reference not given",4.51

# Reference: publication PMC11755785 (Langmuir, 2025)
